Measured values published in the NIST ThermoML archive (doi:10.1021/je1005054).
± gives the expanded uncertainty stated by the source.

Details: Liquid, Calculated from knudsen effusion weight loss

O=C1CCCCCN1 [1-aza-2-cycloheptanone]
vapor or sublimation pressure (343 K): 0.0263 ± 0.0041 kPa | vapor or sublimation pressure (347.9 K): 0.0372 ± 0.006 kPa | vapor or sublimation pressure (348 K): 0.0374 ± 0.006 kPa | vapor or sublimation pressure (352.9 K): 0.0523 ± 0.0086 kPa | vapor or sublimation pressure (353 K): 0.0527 ± 0.0087 kPa
